Consider four molecules from publication PMC11035696, “Prospective de novo drug design with deep interactome learning” (Nature Communications, 2024).

Where “and” joins values, the source holds several entries; their conditions need not be identical. Equal values may be shown once.

One assay has as its system PPARγ. To be noted: known PPARγ activity of ChEMBL ligands; ref ChEMBL database; cited from earlier work.
The target in a further assay is T1, human PPARδ (Homo sapiens, UniProt Q03181).
T1 construct: expressed in transfected cells; host or cells: HEK293T
T1 sequence (Q03181 211-439 limits assumed): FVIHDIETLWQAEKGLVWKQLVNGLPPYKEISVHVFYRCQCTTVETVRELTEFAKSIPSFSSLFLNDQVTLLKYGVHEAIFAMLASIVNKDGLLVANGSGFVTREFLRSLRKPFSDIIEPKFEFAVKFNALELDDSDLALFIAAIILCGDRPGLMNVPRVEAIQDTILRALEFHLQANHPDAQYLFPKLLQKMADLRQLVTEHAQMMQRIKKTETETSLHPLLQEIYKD
The assay can be described thus: Gal4-hybrid reporter gene assay, PPARδ activation. Type of assay: cell-based. As to conditions: result in words. As to the method:
(§1) Compounds 1–3 were characterized in a hybrid reporter gene assay for their agoniztic effect on human nuclear receptors PPARα/γ/δ, RXRα, FXRα, RARα in HEK293T cells. Compound 1 was tested in an isothermal titration calorimetry (ITC) assay to measure direct binding affinity to the ligand-binding domain of PPARγ. ADME properties were measured in standardized assays at Roche.
PPAR activation was determined in uniform Gal4-hybrid reporter gene assays for the PPARα, PPARγ and PPARδ isoforms in HEK293T cells (German Collection of Microorganisms and Cell Culture GmbH, DSMZ) which were transiently transfected with pFR-Luc (Stratagene, La Jolla, CA, USA; reporter) and pRL-SV40 (Promega, Madison, WI, USA; internal control) and one pFA-CMV-hPPAR-LBD[97] clone, coding for the hinge region and ligand binding domain of the canonical isoform of human PPARα, PPARγ, PPARδ or respectively. Cells were cultured in Dulbecco’s modified Eagle’s medium (DMEM), high glucose supplemented with 10% fetal calf serum (FCS), sodium pyruvate (1 mM), penicillin (100 U ⋅ ml^-1), and streptomycin (100 μg ⋅ ml^-1) at 37 °C and 5% CO2 and seeded in 96-well plates (3 × 10^4 cells per well). After 24 h, medium was changed to Opti-MEM without supplements and cells were transiently transfected using Lipofectamine LTX reagent (Invitrogen) according to the manufacturer’s protocol. Five hours after transfection, cells were incubated with the test compounds in Opti-MEM supplemented with penicillin (100 U ⋅ ml^-1), streptomycin (100 μg ⋅ ml^-1) and 0.1% DMSO for 16 h before luciferase activity was measured using the Dual-Glo Luciferase Assay System (Promega) according to the manufacturer’s protocol on a Tecan Spark luminometer (Tecan Deutschland GmbH, Germany). Firefly luminescence was divided by Renilla luminescence and multiplied by 1000 resulting in relative light units (RLU) to normalize for transfection efficiency and cell growth. Fold activation was obtained by dividing the mean RLU of a test compound by the mean RLU of the untreated control. […]

Assay [1] concerns the target T2, retinoic acid receptor (RAR)α (Homo sapiens, UniProt P10276).
T2 construct: RARα (pFA-CMV-hRARα-LBD[104], 1 μM tretinoin); expressed in transfected cells; host or cells: HEK293T
T2 sequence (P10276 183-417 limits assumed): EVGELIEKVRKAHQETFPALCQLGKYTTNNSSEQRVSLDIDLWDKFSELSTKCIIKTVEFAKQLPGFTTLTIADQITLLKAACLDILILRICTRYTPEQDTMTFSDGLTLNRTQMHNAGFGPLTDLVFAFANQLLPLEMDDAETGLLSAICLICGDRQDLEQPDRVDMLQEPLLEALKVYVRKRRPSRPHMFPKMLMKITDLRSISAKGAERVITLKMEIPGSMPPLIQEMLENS
Briefly: Nuclear receptor selectivity profiling, hybrid reporter gene assay, RARα. The class given is cell-based. As to the method: as §1
(§2) PPAR activation was determined in uniform Gal4-hybrid reporter gene assays for the PPARα, PPARγ and PPARδ isoforms in HEK293T cells (German Collection of Microorganisms and Cell Culture GmbH, DSMZ) which were transiently transfected with pFR-Luc (Stratagene, La Jolla, CA, USA; reporter) and pRL-SV40 (Promega, Madison, WI, USA; internal control) and one pFA-CMV-hPPAR-LBD[97] clone, coding for the hinge region and ligand binding domain of the canonical isoform of human PPARα, PPARγ, PPARδ or respectively. Cells were cultured in Dulbecco’s modified Eagle’s medium (DMEM), high glucose supplemented with 10% fetal calf serum (FCS), sodium pyruvate (1 mM), penicillin (100 U ⋅ ml^-1), and streptomycin (100 μg ⋅ ml^-1) at 37 °C and 5% CO2 and seeded in 96-well plates (3 × 10^4 cells per well). After 24 h, medium was changed to Opti-MEM without supplements and cells were transiently transfected using Lipofectamine LTX reagent (Invitrogen) according to the manufacturer’s protocol. Five hours after transfection, cells were incubated with the test compounds in Opti-MEM supplemented with penicillin (100 U ⋅ ml^-1), streptomycin (100 μg ⋅ ml^-1) and 0.1% DMSO for 16 h before luciferase activity was measured using the Dual-Glo Luciferase Assay System (Promega) according to the manufacturer’s protocol on a Tecan Spark luminometer (Tecan Deutschland GmbH, Germany). Firefly luminescence was divided by Renilla luminescence and multiplied by 1000 resulting in relative light units (RLU) to normalize for transfection efficiency and cell growth. Fold activation was obtained by dividing the mean RLU of a test compound by the mean RLU of the untreated control. All samples were tested in at least three biologically independent experiments in duplicates. For dose-response curve fitting and calculation of EC50 values, the equation “[Agonist] versus response (variable slope—four parameters)” was used in GraphPad Prism (version 7.00, GraphPad Software, La Jolla, CA, USA) with fold activation data. The reference agonizts GW7647 (PPARα)[98],[99], pioglitazone (PPARγ)[100],[101] and L165,041 (PPARδ)[102],[103] were used to validate the assays and to monitor assay performance. Nuclear receptor selectivity profiling was performed with corresponding pFA-CMV-hNR-LBD clones and suitable reference agonizts on RARα (pFA-CMV-hRARα-LBD[104], 1 μM tretinoin), LXRα (pFA-CMV-hLXRα-LBD[104], 1 μM TO901317) and RXRα (pFA-CMV-h RXRα-LBD[105], 1 μM Bexarotene).
On the technique in general: Reporter assays use an easily measured gene product as a stand-in for the process of interest.

A further assay has as its target T3, human PPARα (Homo sapiens, UniProt Q07869).
T3 construct: expressed in transfected cells; host or cells: HEK293T
T3 sequence (Q07869 239-466 limits assumed): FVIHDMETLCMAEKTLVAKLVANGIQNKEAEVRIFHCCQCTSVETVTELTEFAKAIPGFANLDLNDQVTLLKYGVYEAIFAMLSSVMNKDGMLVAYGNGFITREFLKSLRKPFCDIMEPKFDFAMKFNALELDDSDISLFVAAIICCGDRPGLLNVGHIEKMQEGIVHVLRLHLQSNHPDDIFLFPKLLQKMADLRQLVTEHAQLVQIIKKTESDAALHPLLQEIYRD
Briefly: Gal4-hybrid reporter gene assay, PPARα activation. Type of assay: cell-based. To be noted: for Fold PPARα activation: individual replicates, source data Fig. 5. As to the method:
as §1, §2

For assay [2], the target named is T4, retinoid X receptor (RXR)α (Homo sapiens, UniProt P19793).
T4 construct: RXRα (pFA-CMV-h RXRα-LBD[105], 1 μM Bexarotene); expressed in transfected cells; host or cells: HEK293T
T4 sequence (P19793 227-458 limits assumed): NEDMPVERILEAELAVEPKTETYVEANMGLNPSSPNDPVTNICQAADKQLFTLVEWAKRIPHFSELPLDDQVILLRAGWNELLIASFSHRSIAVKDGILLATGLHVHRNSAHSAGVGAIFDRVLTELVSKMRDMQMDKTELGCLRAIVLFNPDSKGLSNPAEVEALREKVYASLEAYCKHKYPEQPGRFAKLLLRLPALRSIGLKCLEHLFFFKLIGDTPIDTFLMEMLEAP
Briefly: Nuclear receptor selectivity profiling, hybrid reporter gene assay, RXRα. The class given is cell-based. How it is done:
as §1, §2

For another assay, the target named is T5, human PPARγ (Homo sapiens, UniProt P37231).
T5 construct: expressed in transfected cells; host or cells: HEK293T
T5 sequence (P37231 238-503 limits assumed): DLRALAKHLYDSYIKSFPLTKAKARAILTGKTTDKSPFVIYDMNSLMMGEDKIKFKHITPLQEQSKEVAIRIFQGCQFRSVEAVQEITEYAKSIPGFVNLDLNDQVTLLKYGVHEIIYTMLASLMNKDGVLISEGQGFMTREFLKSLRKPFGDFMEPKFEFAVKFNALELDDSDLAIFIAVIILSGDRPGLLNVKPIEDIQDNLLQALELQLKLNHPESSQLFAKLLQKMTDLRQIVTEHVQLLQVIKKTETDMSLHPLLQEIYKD
Briefly: Gal4-hybrid reporter gene assay, PPARγ activation. The class given is cell-based. As to the method:
as §1, §2

The target of another assay is T6, liver X receptor (LXR)α (Homo sapiens, UniProt Q13133).
T6 construct: LXRα (pFA-CMV-hLXRα-LBD[104], 1 μM TO901317); expressed in transfected cells; host or cells: HEK293T
T6 sequence (Q13133 209-447 limits assumed): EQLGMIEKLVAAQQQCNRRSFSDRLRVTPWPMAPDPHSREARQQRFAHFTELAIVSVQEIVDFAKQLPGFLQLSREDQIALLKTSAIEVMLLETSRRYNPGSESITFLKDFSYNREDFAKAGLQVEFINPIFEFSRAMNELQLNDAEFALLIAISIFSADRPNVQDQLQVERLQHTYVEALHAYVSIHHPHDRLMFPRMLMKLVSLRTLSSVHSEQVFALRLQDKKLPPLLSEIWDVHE
Briefly: Nuclear receptor selectivity profiling, hybrid reporter gene assay, LXRα. Type of assay: cell-based. As to the method:
as §2

As for `Cc1sc(-c2ccccc2F)nc1CCOc1ccc2c(c1)CC[C@H]2CC(=O)O` [ChEMBL391987], the pEC50 (usually the EC50 on a negative log10 scale, so that one unit is a factor of ten) in the assay on PPARγ is given as 6.94.

On to `COc1ccc(Oc2ccc3c(c2)ncn3CCOc2ccc(CCC(=O)O)cc2)cc1` [Compound 3], for which the “activity on PPARδ” value on human PPARδ is listed as “no discernible activity”. For the same molecule, the “RARα reporter activation, replicate values (DMSO ctrl = 1,000)” value is 1,594 and 0,817 and 1,542 in assay [1] (3 µM); 1,322 and 1,046 and 1,521 in assay [1] (10 µM). Besides, the “Fold PPARα activation” value at human PPARα (conc. 0,00000100 M) is 1,270 and 1,357 and 1,503; on human PPARα (conc. 0,00000300 M) it was 2,302 and 2,145 and 2,016; on human PPARα (conc. 0,00000600 M) it was 4,397 and 3,518 and 3,421; at human PPARα (conc. 0,00001000 M), 4,249 and 4,283 and 3,276; at human PPARα (conc. 1,00000000e-007 M), 0,978 and 1,133 and 1,009; at human PPARα (conc. 1,00000000e-008 M), 1,321 and 1,277 and 1,261. For the same molecule, the “Fold PPARα activation” value at human PPARα (conc. 3,00000000e-007 M) was 1,112 and 1,105 and 1,170. Also, the EC50 (as a rule, the concentration needed to bring the measured effect to its halfway point) at human PPARα (hybrid reporter gene assay, HEK293T cells) was 3400 ± 300 nM; on human PPARγ (hybrid reporter gene assay, HEK293T cells, read-out: EC50(PPARγ)), 1800 ± 100 nM. For the same molecule, the “RXRα reporter activation, replicate values (DMSO ctrl = 1,000)” value in assay [2] (3 µM) is 1,197 and 1,077 and 1,363; in assay [2] (10 µM), 1,155 and 1,200 and 1,295. Further, the “PPARγ reporter activation, replicate values (Figure 5)” value is 3,029 and 3,245 and 3,909 and 5,555 and 6,269 and 5,771 and 5,328 on human PPARγ (conc. 0,00000100 M); 8,955 and 11,943 and 12,245 and 11,406 at human PPARγ (conc. 0,00000200 M); 17,358 and 14,143 and 17,954 at human PPARγ (conc. 0,00000300 M); 19,221 and 19,629 and 17,043 and 19,534 and 21,221 and 20,328 and 19,624 at human PPARγ (conc. 0,00001000 M); 0,766 and 0,976 and 1,313 at human PPARγ (conc. 1,00000000e-007 M); 0,785 and 0,961 and 1,208 on human PPARγ (conc. 1,00000000e-008 M). In addition, the “PPARγ reporter activation, replicate values (Figure 5)” value at human PPARγ (conc. 3,00000000e-007 M) is 1,068 and 1,571 and 1,294 and 2,247 and 2,063 and 1,947 and 1,524. Further, the “LXRα reporter activation, replicate values (DMSO ctrl = 1,000)” value at liver X receptor (LXR)α (3 µM) was 2,211 and 1,139 and 1,444; on liver X receptor (LXR)α (10 µM) it was 2,149 and 1,346 and 1,762.

As to `CCCc1cc(C(F)(F)F)ccc1OCCCOc1ccc(OCC(=O)O)c(C)c1` [ChEMBL213355], in the assay on PPARγ, the pEC50 is reported as 6.82.

As to `Cc1cc(OCC[C@@H](C)Oc2ccc(Cl)cc2-c2ccccn2)ccc1CCC(=O)O` [ChEMBL241299], the pEC50 in the assay with PPARγ was 6.51.
